Results taken from patent US12109221B2, “Combination therapy for treating cancer” (LEUKOS BIOTECH, S.L., priority 2017, dated 2024).

Assays:
[1] = test system: MonoMac-1 AML cells; test: In vivo xenotransplantation assay, human AML cells in bones by flow cytometry; design: species or system NSG mice; details: 5 mg/kg apomorphine and 30 mg/kg cytarabine, intraperitoneally, 5 days
Protocol: FIG. 4. […] Bulsulfan-conditioned NSG adult mice were intravenously injected with 1×10^6 MonoMac-1 AML cells. One week after transplantation, mice were treated with 5 mg/kg apomorphine (APO) and/or 30 mg/kg cytarabine (CYT) daily for 5 days. Mice were culled and bones were harvested. Human leukemia cells were detected based on the expression of hCD45 on the surface membrane by flow cytometry. Normalized number of human AML cells against control-treated mice is represented. Bars correspond to mean values and error bars to SEM. ** p<0.01; **** p<0.0001. hAML: #human AML cells (referred to 15 control). CTR: Control.
In order to verify that the synergic cytotoxic effect was also detectable in vivo, pharmacological-conditioned NSG mice were transplanted intravenously with 1×10^6 MonoMac-1 AML cells. One week after transplantation, mice were treated for 5 days with 5 mg/kg apomorphine and/or 30 mg/kg cytarabine, both of them intraperitoneally. Mice were culled and bones were harvested and analyzed for human leukemia by flow cytometry.

[2] = test system: Sp1 gene expression in HL-60 AML cells; test: Sp1 mRNA expression by semi-quantitative PCR; format: cell-based, human; details: HL-60 cells, 72 h; 10 µM apomorphine, 10 µM methiothepin, 5 µM SB224289
Protocol: FIG. 7. Treatment with HTR1 antagonists decreased Sp1 gene expression. HL-60 AML cells were treated with 10 μM apomorphine (APO), 10 μM methiothepin (MET) or 5 μM SB224289 (SB9) for 72 h. Total RNA was isolated and cDNA was obtained afterwards. Semi-quantitative PCR was performed to detect gene expression. Sp1 gene expression is represented as 2^(−ΔΔCt) using GAPDH as the endogenous control. Bars represent the mean value of triplicates. Error bars correspond to SEM. * p<0.05; **** p<0.0001. ddCt: 2^(−ΔΔCt).
At a gene expression level, the expression of Sp1 mRNA was studied. Sp1 has been implicated with chemotherapeutic resistance (Zhang et al. Mol Cancer 2015; 14:56). HL-60 AML cells were treated for 72 h with 10 µM apomorphine, 10 µM methiothepin and 5 µM SB224289. Total RNA as isolated and mRNA was retrotranscribed to cDNA. Semi-quantitative PCR was performed with specific TaqMan oligo pairs.

[3] = test system: HL-60 and Ara-C-resistant HL-60; test: Sensitivity to HTR1 antagonists, parental versus Ara-C-resistant cells, cell viability by flow cytometry; format: cell-based, human; details: HL-60 parental vs Ara-C-resistant HL-60; 72 h
[4] = test system: AML cell lines (TPH-1 and MonoMac1); test: Cell viability by flow cytometry 72 h after treatment, HTR1 antagonist plus cytarabine, combination index; format: cell-based, human; details: in combination with cytarabine, CI below 1 = synergism
Protocol: FIGS. 1A and 1B. […] FIG. 1A. Cell viability was measured by flow cytometry (correct FSC-SSC profile, 7-AAD-, Hoechst33342^low). Normalized number of live cells is graphed. Bars represent the mean value and error bars represent SEM. *** p<0.001; **** p<0.0001. NLC: Number of live cells (referred to control). FIG. 1B. Combination index (CI) value of each combination.
(§1) Synergy is determined herein by means of the Combination Index Model, described previously (Chou T C, Pharmacological Reviews 58: 621-681, 2006). The CI was measured using Compusyn open software. CI values below 1 indicate synergism. CI values about 1 indicate additivism and CI values above 1 indicate antagonisms.

[5] = test system: AML cell line (MonoMac-1); test: Cell viability by flow cytometry 72 h after treatment, HTR1 antagonist plus cladribine, fludarabine or methotrexate, combination index; format: cell-based, human
Protocol: FIGS. 8A and 8B. […] MonoMac-1 cells were cultured for 72 h in a complete RPMI medium in the presence of 5, 10 μM apomorphine (APO) or methiothepin (MET), and 10, 27, 55 nM cladribine (CLD). FIG. 8A. Combination index (CI) value of CLD and APO combination. FIG. 8B. CI value of CLD and MET combination.
FIGS. 9A and 9B. […] MonoMac-1 cells were cultured for 72 h in a complete RPMI medium in the presence of 5, 10 μM apomorphine (APO) or methiothepin (MET), and 200, 500, 1000 nM fludarabine (FLD). FIG. 9A. CI value of FLD and APO combination. FIG. 9B. CI value of FLD and MET combination.
FIG. 10. […] MonoMac-1 cells were cultured for 72 h in a complete RPMI medium in the presence of 5, 10 μM apomorphine (APO), and 2.5, 6.25, 12.5 nM methotrexate (MTX). CI value of MTX and APO combination.
as §1
Cladribine is a cytostatic drug indicated for myeloid neoplasias. […] 72 h after treatment, cell viability was measured by flow cytometry (live cells according to the correct FSC-SSC profile, 7-AAD negativity and Hoechst 33342 positivity, and volumetrically counted).
The potential cytotoxic interaction of fludarabine with HTR1 antagonists was also examined on the same experimental conditions of the example 8. […] 72 h after treatment, cell viability was measured by flow cytometry (live cells according to the correct FSC-SSC profile, 7-AAD negativity and Hoechst 33342 positivity, and volumetrically counted).
Finally, the interaction of the antineoplastic drug methotrexate with HTR1 antagonist was studied. […] 72 h after treatment, cell viability was measured by flow cytometry (live cells according to the correct FSC-SSC profile, 7-AAD negativity and Hoechst 33342 positivity, and volumetrically counted).

[6] = test system: AML cell lines (HL-60 and MonoMac-1); test: Cell viability by flow cytometry 72 h after treatment, HTR1 antagonist plus azacitidine or decitabine, combination index; format: cell-based, human
Protocol: FIGS. 2A and 2B. […] MonoMac-1 cells were cultured for 72 h in a complete RPMI medium in the presence of 2, 5, 10 μM apomorphine (APO) or methiothepin (MET), and 100, 200, 1000 nM azacitidine (AZA). FIG. 2A. Cell viability was measured by flow cytometry (correct FSC-SSC profile, 7-AAD-, Hoechst33342^low). Normalized number of live cells is graphed. Bars represent the mean value and error bars represent SEM. *** p<0.001; **** p<0.0001. NLC: Number of live cells (referred to control). FIG. 2B. Combination index (CI) value of each combination.
FIGS. 3A and 3B. […] Cell viability was measured by flow cytometry (correct FSC-SSC profile, 7-AAD-, Hoechst33342^low). […]
Synergy is determined herein by means of the Combination Index Model, described previously (Chou T C, Pharmacological Reviews 58: 621-681, 2006). The CI was measured using Compusyn open software. […]
Next, the inventors examined the interaction between HTR1 antagonists and azacitidine. […] Cell viability was measured by flow cytometry (live cells according to the correct FSC-SSC profile, 7-AAD negativity and Hoechst 33342 positivity) 72 h after treatment.
Similarly, decitabine was also interrogated for its potential cytotoxic interaction with HTR1 antagonists. […] 72 h after treatment, cell viability was measured by flow cytometry (live cells according to the correct FSC-SSC profile, 7-AAD negativity and Hoechst 33342 positivity).

[7] = test system: KG-1 and Ara-C-resistant KG-1; test: Sensitivity to HTR1 antagonists, parental versus Ara-C-resistant cells, cell viability by flow cytometry; format: cell-based, human; details: KG-1 parental vs Ara-C-resistant KG-1; 72 h

Row | SMILES | effect of the combination in in vivo treatment of AML-bearing mice [1] | Sp1 gene expression [2] | EC50, parental compared to Ara-C-resistant cells [3] | interaction with cytarabine according to the combination index model [4] | interaction with cladribine (combination index) ([5]; in combination with cladribine) | interaction with fludarabine (combination index) ([5]; in combination with fludarabine) | interaction with methotrexate (combination index) ([5]; in combination with methotrexate, low and high concentrations) | interaction with azacitidine (combination index) ([6]; in combination with azacitidine) | interaction with decitabine (combination index) ([6]; in combination with decitabine) | EC50, parental compared to Ara-C-resistant cells [7]
1 | Nc1ccn([C@@H]2O[C@H](CO)[C@H](O)[C@@H]2O)c(=O)n1 [Ara-C, 4-amino-1-[(2R,3S,4R,5R)-3,4-dihydroxy-5 (hydroxymethyl)oxolan-2-yl]pyrimidin-2-one] | synergistic effect |  |  |  |  |  |  |  |  | 
2 | Cc1nc(-c2ccc(-c3ccc(C(=O)N4CCc5cc6c(cc54)C4(CCN(C)CC4)CO6)cc3)c(C)c2)no1 [SB224289] |  | downregulation of Sp1 gene expression |  |  |  |  |  |  |  | 
3 | CN1CCc2cccc3c2[C@H]1Cc1ccc(O)c(O)c1-3 [apomorphine, (6aR)-6-methyl-5,6,6a, 7-tetrahydro-4H-dibenzo[de, g]quinoline-10,11-diol] | synergistic effect | downregulation of Sp1 gene expression | equivalent EC50 values | act synergically | synergically anti-leukemic effect | synergically antileukemic effect | synergically anti-leukemic effect | synergically anti-leukemic effect | synergically anti-leukemic effect | equivalent EC50 values
